Structures are written as SMILES.

The record followed here is ChEMBL document CHEMBL3774358 (Eur J Med Chem, 2016).

For assay [1], the target named is Actin nucleation-promoting factor WASL (Rattus norvegicus, UniProt O08816). The assay is described as follows: Inhibition of full-length rat N-WASP-induced Arp2/3 activation by fluorescence assay.
Assay [2] can be described thus: Inhibition of GFP-tagged Xenopus laevis kinesin-5 microtubule gliding velocity by fluorescence assay.

Chain of Actin nucleation-promoting factor WASL (O08816 whole entry): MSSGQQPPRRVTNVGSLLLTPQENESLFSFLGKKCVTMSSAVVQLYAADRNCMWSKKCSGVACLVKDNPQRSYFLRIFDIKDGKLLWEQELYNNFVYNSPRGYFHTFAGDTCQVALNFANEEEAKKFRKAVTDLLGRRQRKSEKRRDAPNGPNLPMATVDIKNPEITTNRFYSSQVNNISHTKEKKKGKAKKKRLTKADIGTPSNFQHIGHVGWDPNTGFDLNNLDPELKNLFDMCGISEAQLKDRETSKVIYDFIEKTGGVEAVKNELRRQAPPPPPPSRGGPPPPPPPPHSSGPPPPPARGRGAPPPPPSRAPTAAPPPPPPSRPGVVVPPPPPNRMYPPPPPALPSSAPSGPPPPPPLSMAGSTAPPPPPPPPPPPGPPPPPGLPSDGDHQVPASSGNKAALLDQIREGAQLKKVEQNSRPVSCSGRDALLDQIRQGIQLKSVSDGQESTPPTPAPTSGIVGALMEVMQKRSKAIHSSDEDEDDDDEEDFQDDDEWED

With `CN(C)C[C@@H](O)Cn1c2ccc(Br)cc2c2cc(Br)ccc21`, in assay [1], the half-inhibitory concentration (IC50) was found to be 3.44 µM. `CCOC(=O)C1=C(C)NC(=S)NC1c1cccc(O)c1` (stereo not drawn) [MONASTROL] registered an IC50 in assay [2] of 14 µM.

Regarding `CN(C)C[C@H](O)Cn1c2ccc(Br)cc2c2cc(Br)ccc21` [WISKOSTATIN], in assay [1], inhibition was half-maximal at 4.35 µM (IC50).

As usually defined, the IC50 is the point on the concentration scale where inhibition reaches its midpoint. A high value points to weaker potency in that assay.
